US10633420B2, “Antimicrobial peptides with wound healing activity” (priority 2016, dated 2020)
Values after ≈ are worked out from the molar mass of the structure shown. Like-named read-outs stand apart in the source and are kept apart here. No end group written: not given here.

Key:
HEKa cells = assay: In vitro scratch wound closure assay; assay type: cell-based, human; details: 10 μg/ml DRGN-1; 20 μM mitomycin C or 0.2 μM AG1478 pretreatment
Protocol: In vitro scratch wound closure assays: In vitro wound closure was assayed in confluent cell monolayers of HEKa (Invitrogen) as described elsewhere (Kim et al., Amino Acids 46:2333-2343, 2014). Cells were seeded in 6-well plates (Corning, N.Y., USA) and grown until they reached confluence (48 hours) in EpiLife medium supplemented with HKGS. Cells were starved for 18 hours in EpiLife without HKGS and then scratched once vertically with a 200-μl pipette tip to create an artificial wound. For inhibitor studies, mitomycin C (20 μM final) and AG1478 (0.2 μM final) were added 90 minutes and 10 minutes prior to scratch generation. After being washed twice with PBS to remove cellular debris, cells were treated with DRGN-1, VK25 or LL-37. PBS was used as a negative control. Cells were photographed before peptide treatment and 7 hours and 24 hours after peptide treatment using an EVOS® Cell Imaging Systems (Invitrogen). The same image fields were captured and the wound areas were estimated using ImageJ software (Schneider et al., Nat Methods 9:671-675, 2012).

EGFR = assay: Western blotting, EGFR phosphorylation; assay type: cell-based, human; details: 0.2 μM AG1478, 10 minutes preincubation
Protocol: FIGS. 8A-8F indicate transactivation of the EGFR-STAT pathway by DRGN-1. Subconfluent keratinocytes were starved for 2 hours in HGKS-free medium and then stimulated with 10 μg/ml DRGN-1. For EGFR inhibition, cells were preincubated with 0.2 μM AG1478 for 10 minutes and subsequently treated with 10 μg/ml DRGN-1. The cells were harvested into lysis buffer at the indicated times. The phosphorylation of EGFR (p-EGFR) and STAT3 (p-STAT3) was analyzed by Western blotting (FIGS. 8A, 8B, 8D, and 8E). EGFR indicates total EGFR protein. FIGS. 8C and 8F are graphs plotting densitometric analyses of the expression of phosphoprotein relative to unphosphorylated proteins (pEGFR/EGFR, FIG. 8C; pSTAT3/STAT3, FIG. 8F).
Western blotting: Semifluent HEKa cells were serum-starved for 3 hours and then stimulated with 10 μg/ml DRGN-1 or HKGS for 5-30 minutes at 37° C. AG1478 (0.2 μM final) was added 10 minutes prior to DRGN-1 or HKGS treatment. Cells were lysed with 2×Laemmli sample buffer (Bio-Rad; Hercules, Calif.) containing 5 mM sodium fluoride and 2 mM sodium vanadate. Cell lysates were separated on a 4-12% SDS-PAGE gel and transferred to polyvinylidene difluoride membrane using an iBlot system (Invitrogen). The membranes were probed with antibodies specific to phospho-EGFR and EGFR (Cell Signaling). […]

[1] = system: Gram-negative P. aeruginosa and E. coli and the Gram-positive S. aureus
[2] = system: adult human epidermal keratinocytes (HEKa) cells; assay: MTT assay; assay type: cell-based; details: for Toxic effects on metabolically active HEKa cells (MTT): 12.5˜100 μg/ml
Protocol: MTT assay: The toxic effect of the peptides on adult human epidermal keratinocytes (HEKa) cells was evaluated using the MTT (3-(4,5-dimethylthiazolyl-2)-2,5-diphenyltetrazolium bromide) colorimetric method (Di Grazia et al., Antimicrob Agents Chemother 58:2520-2527, 2014). The color intensity of the MTT is directly proportional to the number of metabolically active cells. Keratinocytes were plated in triplicate wells of a 96-well plate, at 4×10^4 cells/well in EpiLife medium supplemented with HKGS. After overnight incubation at 37° C. in a 5% CO2 atmosphere, the plate was incubated with the peptides at different concentrations for 2 hours, and 0.5 mg/ml of MTT was added. After 4 hours of incubation, formazan crystals were dissolved by adding 100 μl of acidified isopropanol, and the absorbance of each well was measured at 570 nm using a microplate reader (PowerWave X; BioTek, Winooski, Vt.).

P. aeruginosa ATCC 9027 = details: ATCC 9027, 3 h, pH 7.4
[3] = system: P. aeruginosa PAO1 (pTDK-GFP)
sheep erythrocytes = assay: Hemolytic activity; assay type: cell-based; details: high concentration
Protocol: FIG. 4 is a graph plotting hemolytic activity of CAMPs. A fresh sheep erythrocyte suspension was incubated with the indicated peptides. Hemoglobin release into the supernatant was measured by absorbance at 567 nm to indicate membrane damage of erythrocytes.

[4] = system: S. aureus SH1000 (pAH9-RFP); details: 3 hours, 10 mM sodium phosphate buffer pH 7.4
S. aureus ATCC25923 = details: ATCC25923, 3 h, pH 7.4
[5] = system: internalized P. aeruginosa ATCC 9027 in HEKa keratinocytes; assay: P. aeruginosa-infected HEKa keratinocytes; assay type: cell-based, Pseudomonas aeruginosa; details: 30 μg/ml, 2 hours
Protocol: Cell infection: Adult human epidermal keratinocytes HEKa (Invitrogen, Carlsbad, Calif.) cells were seeded in 24-well plates (Corning) and grown until they reached confluence (48 h) in EpiLife medium (Thermo Scientific) supplemented with human keratinocyte growth supplements (HKGS) containing 0.2% v/v bovine pituitary extract, 5 μg/ml bovine insulin, 0.18 μg/ml hydrocortisone, 5 μg/ml bovine transferrin, and 0.2 ng/ml human epidermal growth factor (EGF) (Invitrogen). The bacterial strain P. aeruginosa ATCC 9027 was grown in brain heart infusion (BHI) media at 37° C. with mild shaking and then harvested by centrifugation. Bacterial suspension (MOI 10) in EpiLife medium was co-incubated with keratinocytes for 2 hours at 37° C. and 5% CO2. The medium was aspirated and the cells were washed three times with PBS to remove non-adherent bacteria. In order to kill extracellular bacteria, cells were incubated for 1 hour in EpiLife without HKGS supplemented with 100 μg/ml of gentamicin. The medium was then aspirated and the infected cells were washed three times, as described above. Three hundred microliters of peptide solution (30 μg/ml) in EpiLife without HKGS was added to each well and the plate was incubated for 2 hours at 37° C. and 5% CO2. […] The CFU were counted after 24 hours at 37° C.

F. novicida U112 = details: 3 hours, 10 mM sodium phosphate buffer pH 7.4
E. coli O157:H7 = details: 3 hours, 10 mM sodium phosphate buffer pH 7.4
P. aeruginosa PAO1 = details: PAO1, 3 h, pH 7.4
[6] = 3 hours, 10 mM sodium phosphate buffer pH 7.4

Row | Molecule | Effect on keratinocyte migration induced by DRGN-1 (HEKa cells) | Effect on DRGN-1-induced EGFR phosphorylation (EGFR) | EC50 [1] [nM] | EC50, range over strains [1] [µg/mL] | HEKa cell viability (MTT) ([2]; 50˜100 μg/ml) | EC50 (P. aeruginosa ATCC 9027) [µg/mL] | EC50 ([3]; PAO1, 3 h, pH 7.4) [µg/mL] | Toxicity against erythrocytes (hemolysis) (sheep erythrocytes) | EC50 [4] [µg/mL] | Toxic effects on metabolically active HEKa cells (MTT) [2] | EC50 (S. aureus ATCC25923) [µg/mL] | Killing of internalized bacteria [5] [%] | EC50 (F. novicida U112) [µg/mL] | EC50 (E. coli O157:H7) [µg/mL] | EC50 (P. aeruginosa PAO1) [µg/mL] | EC50 [3, 6] [µg/mL]
1 | COc1cc2ncnc(Nc3cccc(Cl)c3)c2cc1OC [AG1478] | prevented cell migration | not observed in AG1478-treated cells | – | – | – | – | – | – | – | – | – | – | – | – | – | –
2 | CC[C@H](C)[C@H](NC(=O)[C@H](CCCCN)NC(=O)[C@H](CCC(=O)O)NC(=O)[C@H](CCCCN)NC(=O)[C@H](CO)NC(=O)[C@H](CCCCN)NC(=O)[C@H](CCCNC(=N)N)NC(=O)[C@H](Cc1ccccc1)NC(=O)[C@H](Cc1ccccc1)NC(=O)[C@H](CC(=O)O)NC(=O)CNC(=O)[C@H](CC(C)C)NC(=O)[C@@H](N)CC(C)C)C(=O)NCC(=O)N[C@@H](CCCCN)C(=O)N[C@@H](CCC(=O)O)C(=O)N[C@@H](Cc1ccccc1)C(=O)N[C@@H](CCCCN)C(=O)N[C@@H](CCCNC(=N)N)C(=O)N[C@H](C(=O)N[C@H](C(=O)N[C@@H](CCC(N)=O)C(=O)N[C@@H](CCCNC(=N)N)C(=O)N[C@H](C(=O)N[C@@H](CCCCN)C(=O)N[C@@H](CC(=O)O)C(=O)N[C@@H](Cc1ccccc1)C(=O)N[C@@H](CC(C)C)C(=O)N[C@@H](CCCNC(=N)N)C(=O)N[C@@H](CC(N)=O)C(=O)N[C@@H](CC(C)C)C(=O)N[C@H](C(=O)N1CCC[C@H]1C(=O)N[C@@H](CCCNC(=N)N)C(=O)N[C@H](C(=O)N[C@@H](CCC(=O)O)C(=O)N[C@@H](CO)C(=O)O)[C@@H](C)O)C(C)C)[C@@H](C)CC)C(C)C)[C@@H](C)CC [LL-37, reference compound] | – | – | 50 to 600 | 0.24 to 2.7 | significant decrease | 1.08 (≈ 0.24 µM) | 2.69 (≈ 0.599 µM) | – | – | – | – | – | – | – | – | –
3 | CO[C@@]12[C@H](COC(N)=O)C3=C(C(=O)C(C)=C(N)C3=O)N1C[C@@H]1N[C@@H]12 [mitomycin C] | strongly inhibited | – | – | – | – | – | – | – | – | – | – | – | – | – | – | –
4 | PSKKTKPVKPKKVA [DRGN-1, PSKKTKPVKPKKVA] | – | – | 500 to 4620 | 0.77 to 7.1 | – | 4.39 | – | did not show any toxicity | 0.77 | devoid of toxic effects | 4.04 | 36 | >100 | 3.48 | 6.85 | 7.10
5 | SPKKTKPVKPKKVA [VK25, SPKKTKPVKPKKVA] | – | – | – | > 100 | – | >100 | – | – | >100 | devoid of toxic effects | >100 | – | >100 | >100 | >100 | >100
